Measured values as given in patent US12577234B2, “Antagonists of the muscarinic acetylcholine receptor M4” (Vanderbilt University, priority 2017, dated 2026).
pIC50: −log10 of the molar value.

Molecular target: T1, human mAChR M4 (Homo sapiens, UniProt P08173)
T1 construct: expressed in transfected cells; host or cells: CHO-K1 (ATCC), stably co-expressing chimeric G protein Gqi5
T1 sequence (P08173 1-479): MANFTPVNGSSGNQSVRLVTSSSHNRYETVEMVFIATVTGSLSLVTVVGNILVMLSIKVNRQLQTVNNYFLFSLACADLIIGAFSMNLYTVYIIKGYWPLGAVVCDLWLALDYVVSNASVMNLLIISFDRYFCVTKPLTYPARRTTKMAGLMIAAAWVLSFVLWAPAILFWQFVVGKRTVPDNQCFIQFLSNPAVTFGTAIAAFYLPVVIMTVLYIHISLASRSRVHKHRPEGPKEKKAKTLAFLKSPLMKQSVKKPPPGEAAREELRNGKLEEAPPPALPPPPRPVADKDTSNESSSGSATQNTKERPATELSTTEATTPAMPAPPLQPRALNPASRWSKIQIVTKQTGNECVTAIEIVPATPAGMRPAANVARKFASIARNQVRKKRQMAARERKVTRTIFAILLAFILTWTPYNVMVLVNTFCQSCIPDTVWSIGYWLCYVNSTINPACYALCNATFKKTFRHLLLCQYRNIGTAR
Assay: mAChR M4 cell-based functional assay (calcium mobilization, EC80 acetylcholine), human M4
Settings: for pIC50: M4/Gqi5/CHO-K1 cells, decrease of EC80 acetylcholine response; for Emin: human M4, % ACh maximum at 30 μM
Outline: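 CHO-K1 cells stably expressing human M4 with chimeric Gqi5; intracellular calcium rise read on FDSS as fluorescence static ratio at 1 Hz. Compounds in 10-point 1:3 dilution series; IC50 taken as concentration-dependent decrease of the EC80 acetylcholine response, four-parameter logistic fit.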

| Compound | Human M4 Emin (Table 10) [%] | pIC50 (Table 10) | pIC50 (Table 9) | Emin (Table 9) [%] |
| --- | --- | --- | --- | --- |
| CC(C)(O)c1cccc(-c2ccc(N[C@H]3C[C@@H]4CN(CC5CCOCC5)C[C@@H]4C3)nn2)c1 [Compound 216, 2-[3-[6-[[(3aR,5s,6aS)-2-(tetrahydropyran-4-ylmethyl)-3,3a,4,5,6,6a-hexahydro-1H-cyclopenta[c]pyrrol-5-yl]amino]pyridazin-3-yl]phenyl]propan-2-ol] | 16 | 7.67 | – | – |
| Cc1cnn(C)c1-c1ccc(O[C@H]2C[C@@H]3CN(CCC(C)(C)C)C[C@@H]3C2)nn1 [Compound 135, (3aR,5s,6aS)-2-(3,3-dimethylbutyl)-5-[6-(2,4-dimethylpyrazol-3-yl)pyridazin-3-yl]oxy-3,3a,4,5,6,6a-hexahydro-1H-cyclopenta[c]pyrrole] | 5 | 6.54 | – | – |
| Fc1ccc(Cl)c(-c2ccc(OCC3C[C@@H]4CN(Cc5ccccc5)C[C@@H]4C3)nn2)c1 (stereo partly drawn) [Compound 114, (3aR,6aS)-2-benzyl-5-[[6-(2-chloro-5-fluoro-phenyl)pyridazin-3-yl]oxymethyl]-3,3a,4,5,6,6a-hexahydro-1H-cyclopenta[c]pyrrole] | – | – | 5.60 | 6.02 |
| Cc1nn(C)cc1-c1ccc(N[C@@H]2C[C@@H]3CN(CCC(C)(C)C)C[C@@H]3C2)c(F)c1F [Compound 41, (3aR,5r,6aS)-2-(3,3-Dimethylbutyl)-N-[4-(1,3-dimethylpyrazol-4-yl)-2,3-difluoro-phenyl]-3,3a,4,5,6,6a-hexahydro-1H-cyclopenta[c]pyrrol-5-amine] | – | – | 6.36 | 4.62 |
| Fc1ccc(Cl)c(-c2ccc(N[C@H]3C[C@@H]4CN(CC5CCOCC5)C[C@@H]4C3)nn2)c1 [Compound 32, (3aR,5s,6aS)-N-[6-(2-chloro-5-fluoro-phenyl)pyridazin-3-yl]-2-(tetrahydropyran-4-ylmethyl)-3,3a,4,5,6,6a-hexahydro-1H-cyclopenta[c]pyrrol-5-amine] | – | – | 9.15 | 4.92 |
| Cc1cnn(C)c1-c1ccc(OCC2C[C@@H]3CN(CCC(C)(C)C)C[C@@H]3C2)nn1 (stereo partly drawn) [Compound 78, (3aR,6aS)-2-(3,3-Dimethylbutyl)-5-[[6-(2,4-dimethylpyrazol-3-yl)pyridazin-3-yl]oxymethyl]-3,3a,4,5,6,6a-hexahydro-1H-cyclopenta[c]pyrrole] | – | – | 6.98 | 4.35 |
| COc1ccccc1-c1ccc(N[C@H]2C[C@@H]3CN(CC4CCOCC4)C[C@@H]3C2)nn1 [Compound 199, (3aR,5s,6aS)-N-[6-(2-methoxyphenyl)pyridazin-3-yl]-2-(tetrahydropyran-4-ylmethyl)-3,3a,4,5,6,6a-hexahydro-1H-cyclopenta[c]pyrrol-5-amine] | 5 | 9.24 | – | – |
| Cc1ccc(-c2ccc(N[C@H]3C[C@@H]4CN(CC5CCOCC5)C[C@@H]4C3)nn2)cc1 [Compound 198, (3aR,5s,6aS)-N-[6-(p-tolyl)pyridazin-3-yl]-2-(tetrahydropyran-4-ylmethyl)-3,3a,4,5,6,6a-hexahydro-1H-cyclopenta[c]pyrrol-5-amine] | 6 | 8.40 | – | – |
| c1ccc(-c2ccc(N[C@H]3C[C@@H]4CN(CC5CCOCC5)C[C@@H]4C3)nn2)cc1 [Compound 197, (3aR,5s,6aS)-N-(6-phenylpyridazin-3-yl)-2-(tetrahydropyran-4-ylmethyl)-3,3a,4,5,6,6a-hexahydro-1H-cyclopenta[c]pyrrol-5-amine] | 9 | 8.90 | – | – |
| Cc1nn(C)cc1-c1ccc(OCC2C[C@@H]3CN(CC45CC6CC(CC(C6)C4)C5)C[C@@H]3C2)nn1 (stereo partly drawn) [Compound 93, (3aR,6aS)-2-(1-adamantylmethyl)-5-[[6-(1,3-dimethylpyrazol-4-yl)pyridazin-3-yl]oxymethyl]-3,3a,4,5,6,6a-hexahydro-1H-cyclopenta[c]pyrrole] | – | – | 7.09 | 4.05 |
| CC(C)(C)CCN1C[C@H]2CC(COc3ccc(-c4cc(F)ccc4Cl)nn3)C[C@H]2C1 (stereo partly drawn) [Compound 106, (3aR,6aS)-5-[[6-(2-chloro-5-fluoro-phenyl)pyridazin-3-yl]oxymethyl]-2-(3,3-dimethylbutyl)-3,3a,4,5,6,6a-hexahydro-1H-cyclopenta[c]pyrrole] | – | – | 6.84 | 3.60 |
| Fc1ccc(Cl)c(-c2ccc(O[C@@H]3C[C@@H]4CN(CC5CC6C=CC5C6)C[C@@H]4C3)nn2)c1 (stereo partly drawn) [Compound 53, (3aR,5r,6aS)-2-(5-bicyclo[2.2.1]hept-2-enylmethyl)-5-[6-(2-chloro-5-fluoro-phenyl)pyridazin-3-yl]oxy-3,3a,4,5,6,6a-hexahydro-1H-cyclopenta[c]pyrrole] | – | – | 7.00 | 3.21 |
| Cc1nn(C)cc1-c1ccc(O[C@@H]2C[C@@H]3CN(CC4CCOCC4)C[C@@H]3C2)nn1 [Compound 50, (3aR,5r,6aS)-5-[6-(1,3-dimethylpyrazol-4-yl)pyridazin-3-yl]oxy-2-(tetrahydropyran-4-ylmethyl)-3,3a,4,5,6,6a-hexahydro-1H-cyclopenta[c]pyrrole] | – | – | 5.22 | 15.6 |
| Fc1ccc(Cl)c(-c2ccc(N[C@H]3C[C@@H]4CN(CC5CC6C=CC5C6)C[C@@H]4C3)nn2)c1 (stereo partly drawn) [Compound 27, (3aR,5s,6aS)-2-(5-bicyclo[2.2.1]hept-2-enylmethyl)-N-[6-(2-chloro-5-fluoro-phenyl)pyridazin-3-yl]-3,3a,4,5,6,6a-hexahydro-1H-cyclopenta[c]pyrrol-5-amine] | – | – | 8.03 | 5.94 |

Now from value to compound:

| Human M4 Emin (Table 10) [%] | pIC50 (Table 10) | pIC50 (Table 9) | Emin (Table 9) [%] | Compound |
| --- | --- | --- | --- | --- |
| – | – | 8.00 | 4.32 | Cc1cnn(C)c1-c1ccc(N[C@H]2C[C@@H]3CN(CC4CCOCC4)C[C@@H]3C2)nn1 [Compound 21, (3aR,5s,6aS)-N-[6-(2,4-dimethylpyrazol-3-yl)pyridazin-3-yl]-2-(tetrahydropyran-4-ylmethyl)-3,3a,4,5,6,6a-hexahydro-1H-cyclopenta[c]pyrrol-5-amine] |
| – | – | 6.60 | 4.16 | Cc1cnn(C)c1-c1ccc(NC[C@H]2C[C@@H]3CN(CC(C)C(C)(C)C)C[C@@H]3C2)nn1 (stereo partly drawn) [Compound 65, N-[[(3aR,5s,6aS)-2-(2,3,3-trimethylbutyl)-3,3a,4,5,6,6a-hexahydro-1H-cyclopenta[c]pyrrol-5-yl]methyl]-6-(2,4-dimethylpyrazol-3-yl)pyridazin-3-amine] |
| – | – | 6.21 | 6.26 | Cc1cccnc1CN1C[C@H]2C[C@H](CNc3ccc(-c4c(C)cnn4C)nn3)C[C@H]2C1 [Compound 68, N-[[(3aR,5s,6aS)-2-[(3-methyl-2-pyridyl)methyl]-3,3a,4,5,6,6a-hexahydro-1H-cyclopenta[c]pyrrol-5-yl]methyl]-6-(2,4-dimethylpyrazol-3-yl)pyridazin-3-amine] |
| – | – | 5.70 | 9.23 | Cc1cccnc1CN1C[C@H]2C[C@H](CNc3ccc(-c4cn(C)nc4C)nn3)C[C@H]2C1 [Compound 73, N-[[(3aR,5s,6aS)-2-[(3-methyl-2-pyridyl)methyl]-3,3a,4,5,6,6a-hexahydro-1H-cyclopenta[c]pyrrol-5-yl]methyl]-6-(1,3-dimethylpyrazol-4-yl)pyridazin-3-amine] |
| – | – | 5.40 | 7.39 | Cc1cnn(C)c1-c1ccc(OCC2C[C@@H]3CN(Cc4ccccc4F)C[C@@H]3C2)nn1 (stereo partly drawn) [Compound 87, (3aR,6aS)-5-[[6-(2,4-dimethylpyrazol-3-yl)pyridazin-3-yl]oxymethyl]-2-[(2-fluorophenyl)methyl]-3,3a,4,5,6,6a-hexahydro-1H-cyclopenta[c]pyrrole] |
| – | – | 9.00 | 7.16 | Cc1cnn(C)c1-c1ccc(N[C@H]2C[C@@H]3CN(CC4CCCCC4)C[C@@H]3C2)nn1 [Compound 20, (3aR,5s,6aS)-2-(cyclohexylmethyl)-N-[6-(2,4-dimethylpyrazol-3-yl)pyridazin-3-yl]-3,3a,4,5,6,6a-hexahydro-1H-cyclopenta[c]pyrrol-5-amine] |
| – | – | 7.59 | – | Cc1cnn(C)c1-c1ccc(N[C@H]2C[C@@H]3CN(CC45CC6CC(CC(C6)C4)C5)C[C@@H]3C2)nn1 [compound 16] |
| – | – | 7.42 | 5.36 | Cc1cccnc1CN1C[C@H]2C[C@H](Nc3ccc(-c4c(C)cnn4C)nn3)C[C@H]2C1 [Compound 24, (3aR,5s,6aS)-N-[6-(2,4-dimethylpyrazol-3-yl)pyridazin-3-yl]-2-[(3-methyl-2-pyridyl)methyl]-3,3a,4,5,6,6a-hexahydro-1H-cyclopenta[c]pyrrol-5-amine] |
| 4 | 7.37 | – | – | Cc1cnn(C)c1-c1ccc(OC[C@@H]2C[C@@H]3CN(CCC(C)(C)C)C[C@@H]3C2)nn1 [Compound 147, (3aR,5r,6aS)-2-(3,3-dimethylbutyl)-5-[[6-(2,4-dimethylpyrazol-3-yl)pyridazin-3-yl]oxymethyl]-3,3a,4,5,6,6a-hexahydro-1H-cyclopenta[c]pyrrole] |
